IC50 data for 33 compounds are collected here from US12679827B2, “Pyrimidine compounds and their pharmaceutical uses” (National Health Research Institutes, priority 2020, dated 2026).

One experiment relates to NCI-H69. Description: Small-cell-lung cancer cell proliferation inhibition assay (PrestoBlue), NCI-H69. Particulars: Homo sapiens, MYCN amplified SCLC cells, 72 hours. It counts as cell-based. Here is the method:
(§1) Small cell lung cancer cells NCI-H82 (ATCC HTB-175, cMYC amplified), NCI-H446 (ATCC® HTB-171, cMYC amplified), and NCI-H69 (ATCC® HTB-119, MYCN amplified) were seeded at the density of 5000-10000 cells per well in 96-well plates. After 24 hours, the cancer cells were treated with each compound at various concentrations (0-10 μM) and then incubated for another 72 hours. IC50 values were computed based on duplicated 8-point titration.

For a further experiment, the system named is NCI-H446. Description: Small-cell-lung cancer cell proliferation inhibition assay (PrestoBlue), NCI-H446. It counts as cell-based. The following applies: Homo sapiens, cMYC amplified SCLC cells, 72 hours. Here is the method:
as §1

In a further experiment the test system is NCI-H82. Nature of the experiment: Small-cell-lung cancer cell proliferation inhibition assay (PrestoBlue), NCI-H82. The following applies: Homo sapiens, cMYC amplified SCLC cells, 72 hours. It counts as cell-based. The method, then: as §1
The target of experiment [1] is T1, human Aurora A (amino acids 123-401) (Homo sapiens, UniProt O14965).
T1 construct: human Aurora A (amino acids 123-401) was expressed in Sf9 insect cells; GST; made in house; host or cells: Sf9 insect cells
T1 sequence (O14965 123-401): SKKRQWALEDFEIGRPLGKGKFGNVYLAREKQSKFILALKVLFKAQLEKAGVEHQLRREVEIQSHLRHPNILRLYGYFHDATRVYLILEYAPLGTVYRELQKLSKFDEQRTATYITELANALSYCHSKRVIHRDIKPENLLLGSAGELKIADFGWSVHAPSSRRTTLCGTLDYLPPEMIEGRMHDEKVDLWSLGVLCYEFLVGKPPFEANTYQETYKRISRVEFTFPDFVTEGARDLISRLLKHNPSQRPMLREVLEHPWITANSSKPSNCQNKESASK
Description: Kinase-Glo Luminescent Kinase assay, in vitro inhibition of Aurora A kinase activity. It counts as biochemical. The following applies: recombinant GST-tagged Aurora A, 5.0 μM ATP, 37° C., 120 minutes. Here is the method: Recombinant glutathione S-transferase (GST)-tagged N-terminal truncated human Aurora A (amino acids 123-401) was expressed in Sf9 insect cells and then purified by glutathione affinity chromatography to afford recombinant Aurora A. Recombinant Aurora A (150 ng) was reacted with each test compound (100 nM) in 50 μL of 50 mM Tris-HCl pH 7.4, 10 mM NaCl, 10 mM MgCl2, 0.01% bovine serum albumin, 5.0 μM ATP, 1 mM dithiothreitol, 15 μM tetra(-LRRASLG) peptide at 37° C. for 120 minutes. Then, to the reaction was added 50 μL of Kinase-Glo Plus Reagent. The resulting mixture was incubated at 25° C. for 20 minutes. A 70 μL aliquot of the mixture was transferred to a black microliter plate. Luminescence was measured using a Wallac Vector 1420 multilabel counter (PerkinElmer, USA).
In general terms: Kinase-Glo reads ATP consumption through a luciferase reaction.

In the case of `Cc1cc(Nc2cc(N3C[C@H](C)NC[C@H]3C)nc(N[C@H]3CCN(C(=O)c4ccc(Cl)cc4F)C3)n2)n[nH]1` [Compound 9], the IC50 in the experiment on NCI-H69, in the experiment with NCI-H446 and in the experiment on NCI-H82 was less than 1 µM in each case.

`Cc1cc(Nc2cc(N3C[C@@H](C)N[C@@H](C)C3)nc(N[C@H]3CCN(C(=O)c4ccc(Cl)cc4F)C3)n2)n[nH]1` [Compound 10]: the IC50 in the experiment with NCI-H69, in the experiment on NCI-H446 and in the experiment with NCI-H82 was less than 1 µM each time.

On to `COCCN1CCN(c2cc(Nc3cc(C)[nH]n3)nc(N[C@H]3CCN(C(=O)c4ccc(Cl)cc4F)C3)n2)CC1` [Compound 13], for which the figures for the concentration for half-maximal inhibition (IC50) (in experiment [1]; with NCI-H69; with NCI-H82) were less than 0.1 µM, less than 1 µM and less than 1 µM, respectively.

As to `Cc1cc(Nc2cc(N3CCN(CC(F)(F)F)CC3)nc(N[C@H]3CCN(C(=O)c4ccc(Cl)cc4F)C3)n2)n[nH]1` [Compound 14], the IC50 in experiment [1] was less than 0.1 µM; in the experiment on NCI-H69, less than 1 µM; with NCI-H446, less than 1 µM; with NCI-H82 it was less than 1 µM.

Take `Cc1cc(Nc2cc(N3C[C@@H](C)N(C)[C@@H](C)C3)nc(N[C@H]3CCN(C(=O)c4ccc(Cl)cc4F)C3)n2)n[nH]1` [Compound 15]: the IC50 in experiment [1] is less than 0.1 µM; with NCI-H69 it was less than 1 µM; with NCI-H446, less than 1 µM; in the experiment with NCI-H82, less than 1 µM.

Regarding `Cc1cc(Nc2cc(N3CCN(C4COC4)CC3)nc(N[C@H]3CCN(C(=O)c4ccc(Cl)cc4F)C3)n2)n[nH]1` [Compound 16], the concentration for half-maximal inhibition (IC50) in experiment [1] was less than 0.1 µM; in the experiment on NCI-H69, less than 1 µM; in the experiment on NCI-H446 it was less than 1 µM; in the experiment with NCI-H82, less than 1 µM.

On to `CCN1CCN(c2cc(Nc3cc(C)[nH]n3)nc(N[C@H]3CCN(C(=O)c4ccc(F)cc4F)C3)n2)CC1` [Compound 44], for which the figures for the IC50 (in experiment [1]; in the experiment on NCI-H446; with NCI-H82) were less than 0.1 µM, less than 1 µM and less than 1 µM, respectively.

For `CCN1CCN(c2cc(Nc3cc(C)[nH]n3)nc(N[C@H]3CCN(C(=O)c4c(F)cc(Cl)cc4F)C3)n2)CC1` [Compound 47], the IC50 was less than 0.1 µM in experiment [1], less than 1 µM in the experiment on NCI-H446 and less than 1 µM in the experiment with NCI-H82.

For `CCN1CCN(c2cc(Nc3cc(C)[nH]n3)nc(N[C@H]3CCN(C(=O)c4cccc(C(F)(F)F)c4F)C3)n2)CC1` [Compound 48], the IC50 in experiment [1] was less than 0.1 µM; with NCI-H446 it was less than 1 µM; in the experiment on NCI-H82 it was less than 1 µM.

Regarding `CCN1CCN(c2cc(Nc3cc(C)[nH]n3)nc(N[C@H]3CCN(C(=O)c4ccc(Cl)c(C(F)(F)F)c4)C3)n2)CC1` [Compound 49], the IC50 in experiment [1] is less than 0.1 µM; with NCI-H446 it was less than 1 µM; with NCI-H82 it was less than 1 µM.

Turning to `CCN1CCN(c2cc(Nc3cc(C)[nH]n3)nc(N[C@H]3CCN(C(=O)c4nc(Cl)ccc4F)C3)n2)CC1` [Compound 50], the IC50 in experiment [1] is less than 0.1 µM; in the experiment with NCI-H446 it was less than 1 µM; in the experiment on NCI-H82, less than 1 µM.

For the compound `CCN1CCN(c2cc(Nc3cc(C)[nH]n3)nc(N[C@H]3CCN(C(=O)c4ccc(Cl)nc4Cl)C3)n2)CC1` [Compound 54], the values for the IC50 (in experiment [1]; with NCI-H446; in the experiment on NCI-H82) were less than 0.1 µM, less than 1 µM and less than 1 µM, respectively.

In the case of `CCN1CCN(c2cc(Nc3cc(C)[nH]n3)nc(N[C@H]3CCN(S(=O)(=O)c4ccc(Cl)cc4C)C3)n2)CC1` [Compound 62], the IC50 in experiment [1] was less than 0.1 µM; with NCI-H446, less than 1 µM; with NCI-H82, less than 1 µM.

With `CCN1CCN(c2cc(Nc3cc(C)[nH]n3)nc(N[C@H]3CCN(S(=O)(=O)c4ccc(Cl)cc4Cl)C3)n2)CC1` [Compound 63], the IC50 in experiment [1] is less than 0.1 µM; with NCI-H446, less than 1 µM; in the experiment with NCI-H82, less than 1 µM.

For the compound `CCN1CCN(c2cc(Nc3cc(C)[nH]n3)nc(N[C@H]3CCN(S(=O)(=O)c4cccc(Cl)c4F)C3)n2)CC1` [Compound 65], the values for the IC50 (in experiment [1]; in the experiment on NCI-H446; in the experiment on NCI-H82) were less than 0.1 µM, less than 1 µM and less than 1 µM, respectively.

Take `CCC(=O)n1nc(Nc2cc(N3CCN(CC)CC3)nc(N[C@H]3CCN(C(=O)c4ccc(Cl)cc4F)C3)n2)cc1C` [Compound 72]: the IC50 in the experiment on NCI-H69, in the experiment on NCI-H446 and in the experiment with NCI-H82 was less than 1 µM in each case.

For `CCN1CCN(c2cc(Nc3cc(C)nn3C(=O)C(C)(C)C)nc(N[C@H]3CCN(C(=O)c4ccc(Cl)cc4F)C3)n2)CC1` [Compound 73], the IC50 in the experiment with NCI-H69, with NCI-H446 and in the experiment with NCI-H82 was less than 1 µM in each case.

Regarding `CCN1CCN(c2cc(Nc3cc(C)n(C(=O)C(C)(C)C)n3)nc(N[C@H]3CCN(C(=O)c4ccc(Cl)cc4F)C3)n2)CC1` [Compound 74], the IC50 in the experiment on NCI-H69, in the experiment with NCI-H446 and with NCI-H82 was less than 1 µM in each case.

For the compound `CCN1CCN(c2cc(Nc3cc(C)n(COC(=O)C(C)(C)C)n3)nc(N[C@H]3CCN(C(=O)c4ccc(Cl)cc4F)C3)n2)CC1` [Compound 75], the IC50 with NCI-H69, in the experiment on NCI-H446 and with NCI-H82 was less than 1 µM throughout.

Consider `CCN1CCN(c2cc(Nc3cc(C)nn3C(=O)OCC(C)C)nc(N[C@H]3CCN(C(=O)c4ccc(Cl)cc4F)C3)n2)CC1` [Compound 78], for which the IC50 in the experiment on NCI-H69, in the experiment with NCI-H446 and in the experiment with NCI-H82 was less than 1 µM each time.

With `CCN1CCN(c2cc(Nc3cc(C)n(C(=O)OCC(C)C)n3)nc(N[C@H]3CCN(C(=O)c4ccc(Cl)cc4F)C3)n2)CC1` [Compound 79], the IC50 in the experiment with NCI-H69, in the experiment with NCI-H446 and in the experiment on NCI-H82 was less than 1 µM in each case.

Consider `CCN1CCN(c2cc(Nc3cc(C)nn3C(=O)OC(C)(C)C)nc(N[C@H]3CCN(C(=O)c4ccc(Cl)cc4F)C3)n2)CC1` [Compound 80], for which the IC50 in the experiment on NCI-H69, in the experiment on NCI-H446 and in the experiment on NCI-H82 was less than 1 µM each time.

With `CCN1CCN(c2cc(Nc3cc(C)n(C(=O)OC(C)(C)C)n3)nc(N[C@H]3CCN(C(=O)c4ccc(Cl)cc4F)C3)n2)CC1` [Compound 81], the IC50 in the experiment with NCI-H69, in the experiment with NCI-H446 and in the experiment on NCI-H82 was less than 1 µM throughout.

As for `CCN1CCN(c2cc(Nc3cc(C)nn3C(=O)OCCOC)nc(N[C@H]3CCN(C(=O)c4ccc(Cl)cc4F)C3)n2)CC1` [Compound 82], the IC50 with NCI-H69, in the experiment on NCI-H446 and with NCI-H82 was less than 1 µM in each case.

For the compound `CCN1CCN(c2cc(Nc3cc(C)n(C(=O)OCCOC)n3)nc(N[C@H]3CCN(C(=O)c4ccc(Cl)cc4F)C3)n2)CC1` [Compound 83], the IC50 in the experiment with NCI-H69, in the experiment on NCI-H446 and in the experiment with NCI-H82 was less than 1 µM each time.

Take `CCN1CCN(c2cc(Nc3cc(C)[nH]n3)nc(NC3CCN(Cc4cccc(Cl)c4F)CC3)n2)CC1` [Compound 88]: the IC50 was less than 0.1 µM in experiment [1], less than 1 µM in the experiment on NCI-H446 and less than 1 µM with NCI-H82.

In the case of `Cc1cc(Nc2cc(N3CC(N(C)C)C3)nc(NC3CCN(C(=O)c4cccc(Cl)c4F)CC3)n2)n[nH]1` [Compound 89], the values for the IC50 (in experiment [1]; in the experiment on NCI-H446; in the experiment on NCI-H82) were less than 0.1 µM, less than 1 µM and less than 1 µM, respectively.

Turning to `Cc1cc(Nc2cc(N(C)CCN(C)C)nc(NC3CCN(C(=O)c4cccc(Cl)c4F)CC3)n2)n[nH]1` [Compound 95], the half-inhibitory concentration (IC50) in experiment [1] is less than 0.1 µM; in the experiment with NCI-H446, less than 1 µM; in the experiment on NCI-H82 it was less than 1 µM.

Regarding `COC1CN(c2cc(Nc3cc(C)[nH]n3)nc(NC3CCN(C(=O)c4cccc(Cl)c4F)CC3)n2)C1` [Compound 99], the IC50 in experiment [1] is less than 0.1 µM; with NCI-H69 it was less than 1 µM; in the experiment on NCI-H446, less than 1 µM.

For the compound `COCCN1CCN(c2cc(Nc3cc(C)[nH]n3)nc(NC3CCN(C(=O)c4cccc(Cl)c4F)CC3)n2)CC1` [Compound 101], the 50% inhibitory concentration (IC50) is less than 0.1 µM in experiment [1], less than 1 µM in the experiment with NCI-H69 and less than 1 µM in the experiment with NCI-H446.

Regarding `COC[C@@H]1CCCN1c1cc(Nc2cc(C)[nH]n2)nc(NC2CCN(C(=O)c3cccc(Cl)c3F)CC2)n1` [Compound 104], the IC50 in experiment [1] was less than 0.1 µM; with NCI-H69, less than 1 µM; in the experiment on NCI-H82, less than 1 µM.

As to `COC1CCN(c2cc(Nc3cc(C)[nH]n3)nc(NC3CCN(C(=O)c4cccc(Cl)c4F)CC3)n2)CC1` [Compound 105], the IC50 in the experiment on NCI-H69, in the experiment with NCI-H446 and in the experiment on NCI-H82 was less than 1 µM throughout.

For `CCOC(=O)n1nc(C)cc1Nc1cc(N2CCN(CC)CC2)nc(NC2CCN(C(=O)c3cccc(Cl)c3F)CC2)n1` [Compound 127], the IC50 in the experiment with NCI-H69, in the experiment with NCI-H446 and with NCI-H82 was less than 1 µM each time.

What is called IC50 is the point on the concentration scale where inhibition reaches its midpoint.
